Patent US20230052601A1, “HALO ACTIVE AROMATIC SULFONAMIDE PHARMACEUTICAL COMPOSITIONS FOR INTERNAL USE” (priority 2021, published 2023)

Tested on: P. aeruginosa
Experiment: Flame burn injury with subcutaneous P. aeruginosa infection in mice, survival (Example 3)
Format: in vivo
Settings: burned mice infected with P. aeruginosa; 1 mg then six doses of 0.5 mg subcutaneously; observed seven days; five treated animals; controls 4 of 11 survived; Fisher exact 0.0337
Protocol: Adult mice (n=16) received a ˜20% flame burn injury, followed by resuscitation with two doses of 0.5 mL of saline and […] of tramadol for analgesia. After 5 minutes, they were infected with P. aeruginosa subcutaneously under the burn wound. 20 minutes post injury, five of the animals received 1 mg of BENZ subcutaneously in 0.25 ml saline, followed by six doses of 0.5 mg of BENZ subcutaneously also in 0.25 ml saline, approximately 8-12 hours apart. The animals were observed several times daily for seven days.

## O=C(O)c1ccc(S(=O)(=O)NCl)cc1 [BENZ, N-chloro-4-carboxybenzenesulfonamide]
  survival of treated animals: all five survived
